According to the supplement of paper PMC11451515:

How the values were obtained:
Assay in all cases: AUC of viability dose-response curve (% viability x log10 dose units); higher = less sensitive
Conditions in all cases: 48 h
P12-Ichikawa = test system: P12-Ichikawa
Method in brief: (§1)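 Leukemia cells adapted to each medium were seeded at 500 or 1000 cells/well in 1536-well plates and dosed with library compounds in DMSO at 11 threefold doses from 47 μM to 0.79 nM for 48 h at 37°C. CellTiter-Glo One luminescence was normalised per plate to DMSO and cell-free wells, then fitted with a four-parameter log-logistic model over log10 doses. Area under the curve was taken from this fit by the trapezoidal rule, with curves above full viability scaled and curves failing quality control removed.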

NOMO1 = test system: NOMO1
Method in brief: as §1

SEM cells = test system: SEM cells
Method in brief: as §1

[1] = RPMI 5 mM glucose + 10% dialyzed FBS

Row | Compound | AUC of viability dose-response curve (P12-Ichikawa; HPLM + 10% dialyzed FBS) | AUC of viability dose-response curve (P12-Ichikawa; RPMI 5 mM glucose + 10% FBS) | AUC of viability dose-response curve (P12-Ichikawa; [1]) | AUC of viability dose-response curve (NOMO1; HPLM + 10% dialyzed FBS) | AUC of viability dose-response curve (NOMO1; RPMI 5 mM glucose + 10% FBS) | AUC of viability dose-response curve (NOMO1; [1]) | AUC of viability dose-response curve (SEM cells; HPLM + 10% dialyzed FBS) | AUC of viability dose-response curve (SEM cells; RPMI 5 mM glucose + 10% FBS) | AUC of viability dose-response curve (SEM cells; [1])
1 | CCNC(=O)Nc1ccc(Oc2ncnc(N)c2/C=N/OC)cc1Cl | 477 | 458 | 471 | 460 | 459 | 441 |  |  | 
2 | CCNC(=O)CCC/C=C\C[C@@H]1[C@@H](/C=C/C(O)CCc2ccccc2)[C@@H](O)C[C@@H]1O (some centres not stated) | 448 | 453 | 431 | 460 | 456 | 459 | 466 | 473 | 461
3 | COc1cc(NCc2ccc3nc(N)nc(N)c3c2C)cc(OC)c1OC | 346 | 383 | 350 | 347 | 397 | 380 | 345 | 370 | 336
4 | Oc1ccc(OCc2ccccc2)cc1 | 435 | 420 | 407 | 441 | 444 | 457 |  |  | 
5 | COc1ccccc1[C@H](c1cccc2ccccc12)[C@@](C)(C#N)C(=O)N1CCC(c2cccc(C(F)(F)F)c2)CC1 | 450 | 425 | 432 | 431 | 458 | 427 | 435 | 456 | 434
6 | CO[C@H]1/C=C/O[C@@]2(C)Oc3c(C)c(O)c4c(c3C2=O)C2=NC3(CCN(CC(C)C)CC3)NC2=C(NC(=O)/C(C)=C/C=C/[C@H](C)[C@H](O)[C@@H](C)[C@@H](O)[C@@H](C)[C@H](OC(C)=O)[C@@H]1C)C4=O | 469 | 466 | 471 | 471 | 476 | 466 |  |  | 
7 | C=CC(=O)Nc1cc2c(Nc3ccc(F)c(Cl)c3)ncnc2cc1C#CC(C)(C)N1CCN(C)CC1 | 395 | 395 | 383 | 382 | 395 | 387 | 360 | 357 | 363
8 | CN1C(=O)c2sccc2N(C)c2nc(Nc3ccc([S+](N)(=O)[O-])cc3)ncc21 | 343 | 349 | 355 | 379 | 390 | 378 | 345 | 348 | 348
9 | COc1ccc(CCC(=O)c2c(O)cc(O[C@@H]3O[C@H](CO)[C@@H](O)[C@H](O)[C@H]3O[C@@H]3O[C@@H](C)[C@H](O)[C@@H](O)[C@H]3O)cc2O)cc1O | 458 | 442 | 463 | 413 | 426 | 425 | 464 | 455 | 465
10 | CC(C)C1CCC(C(=O)N[C@H](Cc2ccccc2)C(=O)O)CC1 (some centres not stated) | 452 | 435 | 419 | 409 | 418 | 446 | 394 | 401 | 422
11 | CC(C)(N)C(=O)N[C@H](COCc1ccccc1)C(=O)N1CCC2(CC1)CN([S+](C)(=O)[O-])c1ccccc12 | 445 | 440 | 438 | 402 | 460 | 446 | 448 | 437 | 419
12 | NCCCC(N)(C(=O)O)C(F)F (configuration not stated) | 462 | 448 | 449 | 454 | 443 | 461 | 446 | 460 | 461
13 | O=C(O)CCCCCC(=O)NN=C1CCCC1 | 467 | 468 | 447 | 433 | 414 | 453 | 456 | 468 | 461
14 | N[S+](=O)([O-])c1ccc(Nc2nc(OCC3CCCCC3)c3[nH]cnc3n2)cc1 |  |  |  | 330 | 346 | 357 | 307 | 276 | 298
15 | NC(=O)c1cccc(-c2cc(Nc3ccc(OC(F)(F)F)cc3)ncn2)c1 | 469 | 466 | 460 | 457 | 436 | 428 | 441 | 464 | 423
16 | COc1c(Cl)cc2c([nH]c3cnccc32)c1NC(=O)c1cccnc1C | 462 | 468 | 454 | 464 | 473 | 471 | 469 | 405 | 465
17 | Nc1nc(F)nc2c1ncn2[C@@H]1O[C@H](COP(=O)(O)O)[C@@H](O)[C@@H]1O | 448 | 460 | 454 | 420 | 456 | 448 | 353 | 398 | 352
18 | CN1CCc2c(c3ccccc3n2Cc2ccc(C(=O)NO)cc2)C1 | 401 | 370 | 377 | 373 | 358 | 397 | 348 | 364 | 310
19 | Cc1cc(Nc2ncc3c(n2)N(C)C(=O)N(c2cc(NC(=O)c4cccc(C(F)(F)F)c4)ccc2C)C3)n(C)n1 | 399 | 374 | 381 | 341 | 362 | 357 | 293 | 278 | 277
20 | C[C@H](CCC(=O)O)[C@H]1CC[C@H]2[C@@H]3[C@H](O)C[C@@H]4C[C@H](O)CC[C@]4(C)[C@H]3CC[C@]12C | 448 | 431 | 418 | 443 | 436 | 409 | 417 | 406 | 433
21 | NC1=NC(=O)N2CC12 (configuration not stated) | 400 | 369 | 349 | 367 | 350 | 352 | 312 | 314 | 281
22 | CC(=O)SC[C@@H](C)C(=O)N1CCC[C@H]1C(=O)N[C@@H](Cc1ccccc1)C(=O)O | 466 | 466 | 462 | 448 | 450 | 466 | 454 | 454 | 472
23 | OC(=O)\C1=C\N(C2CC2)C3=CC(=C(F)C=C3C1=O)N4CCNCC4 | 451 | 456 | 455 | 404 | 428 | 422 |  |  | 

Row | Compound | AUC of viability dose-response curve (P12-Ichikawa; HPLM + 10% dialyzed FBS) | AUC of viability dose-response curve (P12-Ichikawa; RPMI 5 mM glucose + 10% FBS) | AUC of viability dose-response curve (P12-Ichikawa; [1]) | AUC of viability dose-response curve (NOMO1; HPLM + 10% dialyzed FBS) | AUC of viability dose-response curve (NOMO1; RPMI 5 mM glucose + 10% FBS) | AUC of viability dose-response curve (NOMO1; [1]) | AUC of viability dose-response curve (SEM cells; HPLM + 10% dialyzed FBS) | AUC of viability dose-response curve (SEM cells; RPMI 5 mM glucose + 10% FBS) | AUC of viability dose-response curve (SEM cells; [1])
24 | CC/C=C\C[C@H]1C(=O)CC[C@@H]1CC(=O)OC | 460 | 451 | 470 | 470 | 440 | 449 | 469 | 451 | 461
25 | C[C@@H]1[C@H]\2[C@H](O)[C@H]3[C@H](N(C)C)\C(=C(C(N)=O)/C(=O)[C@@]3(O)\C(=C2C(=O)C4=C(O)C=CC=C14)O)O | 473 | 462 | 462 | 470 | 465 | 472 | 468 | 473 | 440
26 | C[C@]12CCC3c4ccc(O)cc4CCC3C1CCC2=O (some centres not stated) | 441 | 447 | 395 | 429 | 424 | 420 |  |  | 
27 | COc1cc2c(cc1OC)[C@@H]1Cc3ccc(OC)c(OC)c3CN1CC2 | 467 | 444 | 461 | 452 | 458 | 464 | 473 | 449 | 477
28 | CC(C)c1onc(-c2c(Cl)cccc2Cl)c1COc1ccc(/C=C/c2cccc(C(=O)O)c2)c(Cl)c1 | 450 | 445 | 452 | 454 | 447 | 466 | 466 | 465 | 443
29 | CNC(=O)c1ccc2c(c1)NC(=O)/C2=C(\Nc1cccc(CN(C)C)c1)c1ccccc1 |  |  |  | 400 | 399 | 380 | 318 | 303 | 302
30 | O=C(c1cncc(Br)c1)N1CCC(N2CCCC2)CC1 | 463 | 463 | 459 | 438 | 450 | 450 | 469 | 464 | 463
31 | CN(C)C/C=C/C(=O)Nc1ccc(C(=O)Nc2cccc(Nc3ncc(Cl)c(-c4c[nH]c5ccccc45)n3)c2)cc1 | 240 | 234 | 247 | 248 | 248 | 235 |  |  | 
32 | Cc1nc(-c2ccc(OCC(C)C)c(C#N)c2)sc1C(=O)O | 467 | 424 | 437 | 461 | 471 | 468 | 475 | 472 | 458
33 | CN(CCOc1ccc(CC2SC(=O)NC2=O)cc1)c1ccccn1 (configuration not stated) | 467 | 465 | 462 | 442 | 474 | 443 | 469 | 433 | 466
34 | CCn1nnc2c(N3CCOCC3)nc(-c3ccc(NC(=O)Nc4ccc(C(=O)N5CCN(C)CC5)cc4)cc3)nc21 | 391 | 353 | 352 | 309 | 395 | 341 | 330 | 296 | 337
35 | Nc1ccc(C(=O)c2cc3c(ccc4ccccc43)[nH]2)cc1 | 348 | 359 | 359 | 412 | 425 | 417 | 374 | 373 | 361
36 | CCCCCNC(=N)N/N=C/c1c[nH]c2ccc(OC)cc12 | 429 | 429 | 436 | 440 | 442 | 441 | 426 | 424 | 428
37 | Cc1c(N)nc([C@H](CC(N)=O)NC[C@@H](N)C(N)=O)nc1C(=O)N[C@H](C(=O)N[C@@H](C)[C@H](O)[C@@H](C)C(=O)N[C@@H](C(=O)NCCc1nc(-c2nc(C(=O)NCCC[S+](C)C)cs2)cs1)[C@@H](C)O)C(O[C@H]1O[C@H](CO)[C@H](O)[C@@H](O)[C@H]1O[C@H]1O[C@H](CO)[C@@H](O)[C@H](OC(N)=O)[C@@H]1O)c1c[nH]cn1 (some centres not stated) | 411 | 378 | 424 | 394 | 416 | 434 | 415 | 382 | 384
38 | CN1C(=O)/C(=C(NC2=CC=C(I)C=C2F)\C3=C1\N=C/N(C[C@@H](O)CO)C3=O)F | 381 | 342 | 369 | 229 | 231 | 216 | 339 | 330 | 295
39 | COc1cc(C(=O)NC2CCN(C)CC2)ccc1Nc1ncc2c(n1)N(C1CCCC1)CCC(=O)N2C(C)C | 406 | 410 | 411 | 432 | 442 | 457 |  |  | 
40 | Nc1ccc(C(=O)Nc2cccc(-c3nc(N4CCOCC4)c4oc5ncccc5c4n3)c2)cn1 | 450 | 428 | 430 | 410 | 442 | 403 |  |  | 
41 | C/C1=C2/[N]3[Co+]456([OH])<-[N]7=C1[C@@H](CCC(N)=O)C(C)(C)/C7=C/C1=[N]->4C(=C(/C)C4=[N]->5[C@@](C)([C@H]3[C@H](CC(N)=O)[C@@]2(C)CCC(=O)NC[C@@H](C)OP(=O)([O-])O[C@H]2[C@@H](O)[C@@H](n3c[n]->6c5cc(C)c(C)cc53)O[C@@H]2CO)[C@@](C)(CC(N)=O)[C@@H]4CCC(N)=O)/[C@@](C)(CC(N)=O)[C@@H]1CCC(N)=O |  |  |  | 434 | 426 | 443 | 433 | 414 | 460
42 | CCCCc1ccc2[nH]c(NC(=O)OC)nc2c1 | 252 | 261 | 289 | 304 | 273 | 293 |  |  | 
43 | c1cc(-c2cnn3cc(-c4ccc(OCCN5CCCCC5)cc4)cnc23)ccn1 | 416 | 395 | 406 | 388 | 397 | 394 |  |  | 
44 | C=CC(=O)Nc1cccc(Sc2nc(Nc3ccc(N4CCN(C)CC4)cc3)ncc2Cl)c1 |  |  |  | 454 | 455 | 456 |  |  | 
45 | CNC[C@H](O)[C@@H](O)[C@H](O)[C@H](O)CO | 471 | 471 | 474 | 432 | 473 | 470 |  |  | 
